In patent publication US20260049109A1, “NOVEL IMMUNOMODULATORY, NEUROMODULATORY, OSTEOGENIC, AND ANTI-OSTEOPOROTIC HKUOT-S2 PROTEIN THAT ENHANCES BONE FRACTURE REPAIRS AND SUPPRESSES OSTEOPOROSIS DEVELOPMENT” (The University of Hong Kong, priority 2022, published 2026):

How the values were obtained:
mTOR1/4E-BP1/AKT1 axis = assay: XL388-induced mTOR inhibition during hMSCs-osteoblast differentiation (qPCR, western blot); format: cell-based, human
Protocol: hMSCs were differentiated into osteoblasts with/without […] XL388 or 0.1 μg ml^−1 HKUOT-S2 treatments for 7 days with medium replenishments every 3 days. The collected cell pellets were processed for qPCR and western blot analyses to establish the mechanism by which HKUOT-S2 promotes osteogenesis and new bone formation. The lists of all the genes and corresponding primer pairs as well as primary and secondary antibodies used for qPCR and western blot analyses are listed in Tables 6, 7 and 8.

[1] = test system: ovariectomized (OVX) mice; assay: OVX-induced osteoporosis, femur μCT; format: in vivo, mouse
Protocol: A total of 32 female C57BL/6J mice at the age of 8-12 weeks old and weighing between 22-25 g were used in this study. All mice underwent dorsoventral surgical operation under anesthesia. The sham control underwent surgery without ovary removal. The ovaries were completely removed from the anterior uterine horns in the OVX group. There were four groups, namely sham control (n=8), OVX control (n=8), OVX+30 μg kg^−1 estrogen (E2, n=8), and OVX+2.18 mg kg^−1 HKUOT-S2 (n=8) treatment groups. The sham and OVX control mice were given subcutaneous of 200 μl of 1XBP. The OVX+E2 and OVX+HKUOT-S2 groups were given 200 μl E2 and HKUOT-S2 via subcutaneous and IP injections respectively. All treatments started 4 hrs after the surgery and thrice per week for 4 weeks post-surgery. Micro CT (μCT) scans were taken on day zero and biweekly post-surgery. At the experimental endpoint, all the mice in the groups were sacrificed under overdose of anesthesia, the bone tissues harvested and processed for bone histomorphometry and immunohistochemical analyses.

hMSCs = hMSCs to osteoblast differentiation; format: cell-based, human
Protocol: The hMSCs and MC3T3-1E cell lines were seeded at 2.5×10^4 cells/well and 2.5×10^3 cells/well of 6-well plate respectively, containing 2 ml of normal cell culture media. The cell culture media were then replaced with osteogenic media containing 100 nM Dex, 10 mM β-Gly and 0.28 mM Asc with or without the HKUOT-S2 protein. The cells were maintained in the osteogenic media for 14 days with media replacement every 3 days. The nondifferentiated cells maintained in the normal cell culture media were used as controls. The cell pellets were then collected and processed for osteogenic gene expression analysis by qPCR at the experimental endpoints.
High Quality Total RNAs, with OD260/OD280 Between 1.98-2.00, were extracted from the in vitro experimented cell lines and the tissues harvested from the in vivo experiments using RNAiso plus reagent (Cat #9109) according to the manufacturer's protocol. The quality and quantity of the extracted RNAs were determined using the NanoDrop One (C) UV-VIS micro-volume spectrophotometer (Thermo Scientific). Equal amount of RNAs across the experimental groups were reverse transcribed into complementary DNA (cDNA) using the PrimeScript™ RT reagent Kit (cat #RR037A, Takara) and Peltier Thermal Cycler (Cat #PTC-100, MJ Research) according to the manufacturers' instructions. Specific primer pairs, equal amount of cDNA for the various experimental groups and the PowerUp™ SYBR™ Green Master Mix (Cat #A25742, Thermo Scientific) were used to prepare the qPCR reaction mix. 10 μl of the qPCR reaction mix of the control and HKUOT-S2 treatment groups, loaded into 96-well plate (0.2 ml) were used evaluate the HKUOT-S2-induced gene expressions in the cell lines from the in vitro and the harvested tissues from the in vivo experiments using the QuantStudio 5 real-time PCR system (Thermo Scientific). The HKUOT-S2-induced differentially gene expression fold changes were calculated by 2^−ΔΔCt method after housekeeping gene normalization.

[2] = 250 nM XL388 alone, western blot
[3] = femur of OVX mice, 2.18 mg/Kg HKUOT-S2, 0.5 mg/Kg SEQ ID NO: 83, n=3
[4] = 0.1 μg/ml HKUOT-S2, 0.01 μg/ml SEQ ID NO: 83

Compound: Cc1c(C(=O)N2CCOc3ccc(-c4ccc(N)nc4)cc3C2)ccc(S(C)(=O)=O)c1F [XL388]
- 4E-BP1 expression (mTOR1/4E-BP1/AKT1 axis; 125 nM XL388 alone, qPCR): significantly suppressed
- AKT1 expression (mTOR1/4E-BP1/AKT1 axis; 125 nM XL388 alone, qPCR): significantly suppressed
- MTOR1 expression (mTOR1/4E-BP1/AKT1 axis; 125 nM XL388 alone, qPCR): significantly suppressed
- RUNX2 expression (mTOR1/4E-BP1/AKT1 axis; 125 nM XL388 alone, qPCR): significantly suppressed
- S6K1 expression (mTOR1/4E-BP1/AKT1 axis; 125 nM XL388 alone, qPCR): significantly suppressed
- phosphorylation of 4E-BP1 (mTOR1/4E-BP1/AKT1 axis; [2]): prevented
- phosphorylation of MTOR1 (mTOR1/4E-BP1/AKT1 axis; [2]): prevented
- ALP expression (mTOR1/4E-BP1/AKT1 axis; XL388-induced mTOR inhibition): no effects

Compound: TKSSLPGQTK (HKUOT-S2 peptide) [SEQ ID NO: 83]
- osteoporosis suppression effects compared with the 2.18 mg/Kg HKUOT-S2 treatment group ([1]; 0.5 mg/Kg SEQ ID NO: 83, OVX mice): stronger
- bone surface area to bone volume ratio (BS/BV) [1, 3]: decreased
- bone surface area to tissue volume (BS/TV) ratio [1, 3]: significantly increasing
- bone volume (BV/TV) [1, 3]: significantly increasing
- trabecular number (Tb. N) [1, 3]: significantly increasing
- trabecular separation (Tb. Sp) [1, 3]: decreased
- trabecular thickness (Tb.th) [1, 3]: significantly increasing
- osteogenic effects compared to the HKUOT-S2 treatment (hMSCs): robust
- ALP activities (hMSCs; [4]): significantly increased
- ALP mRNA expression (hMSCs; [4]): increasing
- oestrogen receptor α (ERα) mRNA expression (hMSCs; [4]): increasing
- osteoblast biomineralization (hMSCs; [4]): significantly increased
- COL-1A expression (hMSCs; 0.01μ gml^−1): increasing
